Experimental data from PMC4663078 (Bioorganic & medicinal chemistry letters, 2015).
Like-named read-outs stand apart in the source and are kept apart here.

What was measured:
E. coli (ATCC 25922) = test: microdilution susceptibility test; type: cell-based, Escherichia coli; details: N=3
CIMRSA 2 = test: microdilution susceptibility test; type: cell-based, Staphylococcus aureus; details: N=3
CIMRSA 5 = test: microdilution susceptibility test; type: cell-based, Staphylococcus aureus; details: N=3
[1] = tested on: PBMC isolated from healthy volunteers; test: cytotoxicity in peripheral blood mononuclear cells; type: cell-based, human; details: N=3
CIMRSA 1 = test: microdilution susceptibility test; type: cell-based, Staphylococcus aureus; details: N=3
[2] = tested on: clinical isolates of MRSA; details: cited from earlier work
Klebsiella pneumoniae = details: cited from earlier work
S. aureus DNA gyrase = S. aureus DNA gyrase (Staphylococcus aureus, UniProt P0A0K8+P20831); test: DNA gyrase supercoiling inhibition; type: biochemical
Sequence of S. aureus DNA gyrase (P20831 whole entry): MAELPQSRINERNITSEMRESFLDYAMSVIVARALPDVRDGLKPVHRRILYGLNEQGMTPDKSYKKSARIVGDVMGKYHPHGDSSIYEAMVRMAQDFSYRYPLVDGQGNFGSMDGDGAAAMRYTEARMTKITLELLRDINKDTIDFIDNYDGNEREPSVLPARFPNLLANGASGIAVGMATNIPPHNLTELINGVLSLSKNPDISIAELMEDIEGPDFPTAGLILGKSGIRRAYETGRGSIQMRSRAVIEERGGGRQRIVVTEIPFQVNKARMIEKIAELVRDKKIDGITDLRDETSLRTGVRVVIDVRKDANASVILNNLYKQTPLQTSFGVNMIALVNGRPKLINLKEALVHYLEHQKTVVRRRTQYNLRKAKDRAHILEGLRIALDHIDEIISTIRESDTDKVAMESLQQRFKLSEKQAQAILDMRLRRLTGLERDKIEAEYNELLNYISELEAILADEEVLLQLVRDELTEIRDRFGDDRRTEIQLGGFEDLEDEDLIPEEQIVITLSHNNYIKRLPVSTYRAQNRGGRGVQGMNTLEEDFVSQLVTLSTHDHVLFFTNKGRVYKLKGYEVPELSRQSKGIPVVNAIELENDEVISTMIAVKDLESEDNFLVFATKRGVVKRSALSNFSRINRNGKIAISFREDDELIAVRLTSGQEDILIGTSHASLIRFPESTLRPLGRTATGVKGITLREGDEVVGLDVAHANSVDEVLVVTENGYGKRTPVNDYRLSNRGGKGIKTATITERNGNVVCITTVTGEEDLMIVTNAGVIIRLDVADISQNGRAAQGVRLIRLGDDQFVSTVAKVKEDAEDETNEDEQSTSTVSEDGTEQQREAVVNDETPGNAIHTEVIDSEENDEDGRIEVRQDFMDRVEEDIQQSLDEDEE
Sequence of S. aureus DNA gyrase (P0A0K8 whole entry): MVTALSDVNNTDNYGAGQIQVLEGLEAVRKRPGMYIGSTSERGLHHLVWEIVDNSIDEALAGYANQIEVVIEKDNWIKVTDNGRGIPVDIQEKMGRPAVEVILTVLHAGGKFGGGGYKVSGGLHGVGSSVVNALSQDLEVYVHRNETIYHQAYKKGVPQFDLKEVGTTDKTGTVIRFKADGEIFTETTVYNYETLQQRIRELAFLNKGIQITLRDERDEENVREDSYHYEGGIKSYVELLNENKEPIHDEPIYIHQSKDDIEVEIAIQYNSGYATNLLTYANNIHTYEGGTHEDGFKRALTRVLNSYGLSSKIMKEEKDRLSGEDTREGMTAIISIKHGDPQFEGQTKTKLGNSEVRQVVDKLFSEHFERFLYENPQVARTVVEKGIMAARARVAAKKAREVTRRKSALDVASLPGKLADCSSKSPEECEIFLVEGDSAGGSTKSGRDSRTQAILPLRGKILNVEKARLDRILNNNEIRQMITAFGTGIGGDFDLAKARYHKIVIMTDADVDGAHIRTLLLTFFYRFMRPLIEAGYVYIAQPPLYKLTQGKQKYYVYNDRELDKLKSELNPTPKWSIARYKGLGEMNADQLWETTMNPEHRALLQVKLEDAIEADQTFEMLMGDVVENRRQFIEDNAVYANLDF

Pseudomonas aeruginosa = details: cited from earlier work
CIMRSA 6 = test: microdilution susceptibility test; type: cell-based, Staphylococcus aureus; details: N=3
[3] = tested on: Staphylococcus saprophyticus; details: cited from earlier work
CIMRSA 4 = test: microdilution susceptibility test; type: cell-based, Staphylococcus aureus; details: N=3
MRSA (ATCC 43300) [4] = test: microdilution susceptibility test; type: cell-based, Staphylococcus aureus; details: N=3
CIMRSA 7 = test: microdilution susceptibility test; type: cell-based, Staphylococcus aureus; details: N=3
CIMRSA 3 = test: microdilution susceptibility test; type: cell-based, Staphylococcus aureus; details: N=3
Vero cells = test: CTG Luminescent Cell Viability Assay; type: cell-based, monkey; details: N=3
Bacillus cereus = details: cited from earlier work
MRSA (ATCC 43300) [5] = details: cited from earlier work
eight MRSA strains = test: antibacterial activity against eight MRSA strains; type: cell-based, Staphylococcus aureus; details: 6 compared with 2
[6] = CTG Luminescent Cell Viability Assay; type: cell-based, monkey; details: monkey, Vero cells

In the case of 2-hexadecynoic acid [compound 4], the MIC (E. coli (ATCC 25922)) is reported as >1,000 μg/mL, the “IC50 ± SEM” value (CIMRSA 2) is reported as 5.0 ± 0.5 µg/mL and the MIC (CIMRSA 2) is reported as 7.8 µg/mL. For the same compound, the “IC50 ± SEM” value (CIMRSA 5) was 5.1 ± 0.2 µg/mL, the MIC (CIMRSA 5) was 7.8 µg/mL and the “PBMC cytotoxicity IC50±SEM” value [1] was 68.9 ± 0.7 µg/mL. For the same compound, the “IC50 ± SEM” value (CIMRSA 1) was 4.2 ± 0.1 µg/mL, the MIC (CIMRSA 1) was 7.8 µg/mL and the MIC [2] was 3.9 µg/mL. For the same compound, the MIC (Klebsiella pneumoniae) was 7.8 µg/mL, the “fold more active against DNA gyrase than 6” value (S. aureus DNA gyrase; 4 compared with 6) was 3.7 fold and the MIC (Pseudomonas aeruginosa) was 125 µg/mL. The “IC50 ± SEM” value (CIMRSA 6) was 5.7 ± 0.8 µg/mL, the MIC (CIMRSA 6) was 7.8 µg/mL and the MIC [3] was 15.6 µg/mL. For the same compound, the “IC50 ± SEM” value (CIMRSA 4) was 6.5 ± 0.1 µg/mL, the MIC (CIMRSA 4) was 15.6 µg/mL and the “IC50 ± SEM” value (MRSA (ATCC 43300) [4]) was 5.1 ± 0.1 µg/mL. The MIC (MRSA (ATCC 43300) [4]) was 7.8 µg/mL, the “IC50 ± SEM” value (CIMRSA 7) was 4.7 ± 0.3 µg/mL and the MIC (CIMRSA 7) was 7.8 µg/mL. For the same compound, the “IC50 ± SEM” value (CIMRSA 3) was 6.3 ± 0.2 µg/mL, the MIC (CIMRSA 3) was 15.6 µg/mL and the “Vero cells cytotoxicity IC50±SEM” value (Vero cells) was 1.6 ± 0.4 µg/mL. The MIC (Bacillus cereus) was 31.3 µg/mL and the MIC (MRSA (ATCC 43300) [5]) was 15.6 µg/mL.
For `CCCCCCCCCCCCCCCC(=O)Oc1ccc(/C=C/C(=O)/C=C/c2ccc(OC(=O)CCCCCCCCCCCCCCC)c(OC)c2)cc1OC` [C5-Curc-PA, C5-Curcumin-Palmitic Acid], the “inhibition of S. aureus DNA gyrase (in words)” value (S. aureus DNA gyrase; ethidium bromide stained gels, Fig. 2) was “not inhibitory”.
With `CCCCCCCCCCCCCC#CC(=O)Oc1ccc(/C=C/C(=O)/C=C/c2ccc(OC(=O)C#CCCCCCCCCCCCCC)c(OC)c2)cc1OC` [compound 6, C5-Curcumin-2-Hexadecynoic Acid] the “fold increase of antibacterial activity against MRSA strains relative to 2” value (eight MRSA strains) was 4-8 fold and the IC50 [6] was > 100 µg/mL.
